One data set concerns the target Human Factor XIa (Homo sapiens, UniProt P03951). Briefly: Inhibition of human coagulation factor XIa by absorptiometry (substrate S-2366). It counts as biochemical. The conditions noted are these: 37° C., 20 min incubation, absorbance 405 nm; read-out: hFXIa IC50.
In the next data set the target is T1, CYP1A2 (Homo sapiens, UniProt P05177).
T1 construct: Liver microsomes (150-donor, Corning, Cat. 452117; Lot; 38292), NADPH; tissue Corning 452117; host or cells: liver microsomes, 150-donor pool
T1 sequence (P05177 1-516): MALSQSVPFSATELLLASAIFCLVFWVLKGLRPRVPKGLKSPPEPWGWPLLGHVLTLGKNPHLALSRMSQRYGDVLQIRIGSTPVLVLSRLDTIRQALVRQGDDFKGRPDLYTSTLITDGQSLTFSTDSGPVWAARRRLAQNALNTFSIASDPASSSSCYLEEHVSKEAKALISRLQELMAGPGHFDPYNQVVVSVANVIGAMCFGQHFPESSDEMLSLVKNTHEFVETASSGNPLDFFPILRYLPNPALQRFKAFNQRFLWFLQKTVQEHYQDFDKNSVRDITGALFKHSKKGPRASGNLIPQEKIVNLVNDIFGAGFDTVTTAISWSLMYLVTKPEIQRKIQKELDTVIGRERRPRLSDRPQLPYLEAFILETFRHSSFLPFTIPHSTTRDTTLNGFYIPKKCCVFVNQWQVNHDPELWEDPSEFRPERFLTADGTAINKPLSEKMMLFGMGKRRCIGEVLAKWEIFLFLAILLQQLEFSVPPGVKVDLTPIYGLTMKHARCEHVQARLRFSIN
Briefly: CYP enzyme inhibition in liver microsomes: CYP1A2. It counts as in vitro ADME. The conditions noted are these: 0.2 mg/mL liver microsomes. Here is the method: (§1) Example 55: Investigation of CYP Enzyme Inhibition by the Compounds of the Present Invention Liver microsomes (150-donor, Corning, Cat. 452117; Lot. 38292), NADPH. A 0.2 mg/mL microsome system was prepared, each test substance and substrate were added, and the final concentration of the test substance was 50 μM. After pre-incubating for 8 min, 10 mM NADPH was added to start the reaction, and the final concentration of NADPH was 1 mM. After a period of incubation, an internal standard such as methanol was added to stop the reaction. The amount of substrate metabolites generated in each reaction well was detected. Data processing: Taking the metabolite generation in the blank well as 100%, the reduction of metabolite generation in each well of the test substance was calculated, and the inhibition rate was calculated.

The target of another data set is T2, hERG (Homo sapiens, UniProt Q12809).
T2 construct: host or cells: HEK293
T2 sequence (Q12809 whole entry): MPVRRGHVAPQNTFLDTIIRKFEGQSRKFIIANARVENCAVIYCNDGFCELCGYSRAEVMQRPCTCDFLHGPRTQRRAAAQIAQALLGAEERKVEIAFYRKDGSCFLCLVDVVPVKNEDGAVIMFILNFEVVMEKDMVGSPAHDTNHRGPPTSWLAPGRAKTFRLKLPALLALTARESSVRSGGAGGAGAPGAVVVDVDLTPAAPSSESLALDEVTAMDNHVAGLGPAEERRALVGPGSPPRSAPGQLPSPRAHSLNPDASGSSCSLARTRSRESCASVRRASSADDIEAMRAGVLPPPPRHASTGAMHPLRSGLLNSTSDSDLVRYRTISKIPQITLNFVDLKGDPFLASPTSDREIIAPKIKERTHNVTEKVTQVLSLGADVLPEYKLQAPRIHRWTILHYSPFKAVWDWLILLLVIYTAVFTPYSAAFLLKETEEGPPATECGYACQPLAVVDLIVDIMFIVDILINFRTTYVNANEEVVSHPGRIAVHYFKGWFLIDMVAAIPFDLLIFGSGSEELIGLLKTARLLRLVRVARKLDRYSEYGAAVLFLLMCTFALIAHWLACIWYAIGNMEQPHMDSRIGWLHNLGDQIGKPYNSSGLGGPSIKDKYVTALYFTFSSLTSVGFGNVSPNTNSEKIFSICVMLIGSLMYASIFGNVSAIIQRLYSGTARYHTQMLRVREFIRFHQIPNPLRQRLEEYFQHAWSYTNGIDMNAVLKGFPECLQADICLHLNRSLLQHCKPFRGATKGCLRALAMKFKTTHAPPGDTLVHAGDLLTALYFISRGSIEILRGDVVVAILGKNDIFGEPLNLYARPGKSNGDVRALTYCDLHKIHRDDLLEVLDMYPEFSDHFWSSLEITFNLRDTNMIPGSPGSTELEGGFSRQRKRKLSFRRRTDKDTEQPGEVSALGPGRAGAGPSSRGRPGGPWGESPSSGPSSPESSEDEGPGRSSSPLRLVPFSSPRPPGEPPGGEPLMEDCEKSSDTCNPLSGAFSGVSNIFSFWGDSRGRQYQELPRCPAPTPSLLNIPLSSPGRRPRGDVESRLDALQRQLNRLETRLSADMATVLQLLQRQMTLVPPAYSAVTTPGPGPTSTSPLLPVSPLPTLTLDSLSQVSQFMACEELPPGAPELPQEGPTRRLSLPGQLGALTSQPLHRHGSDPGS
As to the kind of experiment: hERG current in HEK293-hERG stably transfected cells. It counts as cell-based. Conditions: human, HEK293 cells stably transfected with hERG; at 10 μM; read-out: hERG peak current inhibition. How it is done:
Example 56: Investigation on hERG of the Compound of the Present Invention
HEK293-hERG stably transfected cell line (invitrogen). DMEM medium (Gibco), HEPES (invitrogen), Blasticidin (invitrogen)
HEK293-hERG stably transfected cells were used for experiments when they were cultured to a degree of polymerization of 40%-80%. First, a blank solvent was applied to the cells to establish a baseline. […] In the presence of test compounds, hERG currents were recorded for approximately 5 minutes to reach a steady state, and then 5 sweep frequencies were captured. To ensure good performance of cultured cells and manipulations, the same batch of cells was also tested using the positive control dofetilide.
Peak current inhibition=(1−Peak tail current compound/Peak tail current vehicle)*100

The test system of a further data set is human plasma. Briefly: Anticoagulant effect on human plasma in vitro (APTT determination). In kind it is biochemical. The conditions noted are these: for aPTT EC1.5×: concentration giving APTT of 1.5× blank control; for aPTT EC2×: concentration giving APTT of 2× blank control. In a few lines: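 Citrated (3.2%) human plasma, stored at −80 °C and thawed, mixed with compound in DMSO (2% v/v; DMSO-only blank) and incubated 10 min at 37 °C before APTT on a coagulation analyzer. EC1.5× and EC2× are concentrations giving APTT 1.5× and 2× the blank control, from curve fitting.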

Another data set deals with T3, CYP2C8 (Homo sapiens, UniProt P10632).
T3 construct: Liver microsomes (150-donor, Corning, Cat. 452117; Lot; 38292), NADPH; tissue Corning 452117; host or cells: liver microsomes, 150-donor pool
T3 sequence (P10632 1-490): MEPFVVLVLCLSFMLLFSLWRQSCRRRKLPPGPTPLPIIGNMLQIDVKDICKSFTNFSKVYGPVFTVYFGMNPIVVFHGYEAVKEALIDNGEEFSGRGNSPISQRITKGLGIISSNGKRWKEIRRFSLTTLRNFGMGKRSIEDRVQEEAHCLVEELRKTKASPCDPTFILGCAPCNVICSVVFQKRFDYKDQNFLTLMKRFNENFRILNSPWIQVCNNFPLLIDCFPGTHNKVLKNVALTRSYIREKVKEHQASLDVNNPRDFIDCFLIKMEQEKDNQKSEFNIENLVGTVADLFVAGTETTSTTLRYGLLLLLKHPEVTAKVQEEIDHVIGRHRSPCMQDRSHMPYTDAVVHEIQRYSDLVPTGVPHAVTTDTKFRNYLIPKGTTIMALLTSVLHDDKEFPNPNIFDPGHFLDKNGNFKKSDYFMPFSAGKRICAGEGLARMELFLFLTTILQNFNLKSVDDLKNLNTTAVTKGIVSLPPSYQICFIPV
Briefly: CYP enzyme inhibition in liver microsomes: CYP2C8. Conditions: 0.2 mg/mL liver microsomes. In kind it is in vitro ADME. How it is done: as §1

Human Factor XIa, sequence (P03951 388-625 limits assumed): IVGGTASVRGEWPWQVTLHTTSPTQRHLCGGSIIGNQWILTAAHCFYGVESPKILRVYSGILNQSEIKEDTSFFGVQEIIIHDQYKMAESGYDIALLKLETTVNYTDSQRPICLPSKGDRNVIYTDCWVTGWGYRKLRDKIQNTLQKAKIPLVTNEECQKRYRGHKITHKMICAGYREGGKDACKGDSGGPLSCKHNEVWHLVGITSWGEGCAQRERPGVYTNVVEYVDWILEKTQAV
Human Factor XIa, sequence (P03951 19-387 partner limits assumed): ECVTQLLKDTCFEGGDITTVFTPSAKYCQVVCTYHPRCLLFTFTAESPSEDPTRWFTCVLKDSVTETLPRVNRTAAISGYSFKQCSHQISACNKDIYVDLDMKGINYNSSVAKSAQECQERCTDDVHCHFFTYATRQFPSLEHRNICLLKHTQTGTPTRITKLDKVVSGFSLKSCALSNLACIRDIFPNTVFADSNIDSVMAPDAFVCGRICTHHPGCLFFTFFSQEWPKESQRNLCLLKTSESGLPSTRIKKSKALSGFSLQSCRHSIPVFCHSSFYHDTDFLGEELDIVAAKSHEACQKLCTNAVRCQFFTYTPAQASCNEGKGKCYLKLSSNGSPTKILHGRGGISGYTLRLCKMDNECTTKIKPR

For the molecule `COc1nn([C@@H](Cc2ccccc2)C(=O)Nc2ccc(C(=O)O)cc2)c(=O)cc1-c1cc(Cl)ccc1C(C)=O` [Example 19, (S)-4-(2-(4-(2-acetyl-5-chlorophenyl)-3-methoxy-6-oxopyridazin-1(6H)-yl)-3-phenylpropanamido)benzoic acid], the figures for the IC50 on Human Factor XIa, on CYP1A2 and on CYP2C8 were 0.00761 µM, greater than 50 µM and roughly 50 µM, respectively. Besides, the inhibition at 5 min, 10 µM at hERG came to 1.17%. Besides, the “aPTT EC1.5×” value in the data set with human plasma turned out to be 0.641 µM. In the data set on human plasma, the “aPTT EC2×” value amounted to 2.817 µM.
Consider `CCC(=O)c1ccc(Cl)cc1-c1cc(=O)n([C@@H](Cc2ccccc2)C(=O)Nc2ccc(C(=O)O)cc2)nc1OC` [Example 32], for which the IC50 is 0.00165 µM at Human Factor XIa, greater than 50 µM against CYP1A2 and roughly 30 µM against CYP2C8. For the same molecule, on hERG, the inhibition at 5 min, 10 µM is 2.8%. Moreover, in the data set on human plasma, the “aPTT EC1.5×” value was 0.483 µM. Further, the “aPTT EC2×” value with human plasma turned out to be 1.319 µM.

These data come from patent publication US20230027295A1, “FXIA INHIBITORS AND PREPARATION METHOD THEREFOR AND PHARMACEUTICAL USE THEREOF” (Shenzhen Salubris Pharmaceuticals Co., Ltd., priority 2019, published 2023).
